Test results reported in patent publication US9815836B2, “Macrocyclic compounds as IRAK1/4 inhibitors and uses thereof” (Merck Patent GmbH, priority 2015, dated 2017).
Like-named read-outs stand apart in the source and are kept apart here.

What was measured:
IRAK4 = IRAK4 (Homo sapiens (Human), UniProt Q9NWZ3); assay: IRAK4 enzymatic assay (ADP-Glo luminescence); type: biochemical; conditions: human purified recombinant His-TEV-IRAK4 (1-460), ATP 2 μM, STK1-biotin peptide 300 nM
Protocol: IRAK4 is a human purified recombinant enzyme (His-TEV-IRAK4 (1-460)).
In this assay, IRAK4 hydrolyses ATP, autophosphorylates and phosphorylates a Serine/Threonine generic peptidic substrate (STK: 61ST1BLC from CisBio International). Measurement of IRAK-4 inhibition is performed in 384-well format based on a luminescence assay (ADP-Glo™ Kinase Assay from Promega). Purified human recombinant IRAK4 (0.3 μg/ml) and serial diluted compounds in DMSO (range of concentration from 10 μM to 0.5 nM) or controls (1% DMSO) are incubated for 15 minutes at RT in assay buffer containing 50 mM Hepes pH 7.0, Fatty acid-free BSA 0.1%, Dithiothreitol (DTT) 2 mM, MgCl2 10 mM, EGTA 0.5 mM, Triton X-100 0.01%, MnCl2 5 mM. The kinase reaction is then initiated by the addition of ATP (2 μM) and the peptidic substrate STK1-biotin peptide (300 nM). After 2 hours of incubation at RT, the reaction is stopped and the unconsumed ATP depleted by the addition of ADP-Glo™ Reagent according to supplier instructions. After 40 minutes of incubation at RT, the Kinase Detection Reagent is then added to the assay plate according to supplier instructions. After 20 minutes of incubation at RT, the luminescence signal is measured with a plate-reading luminometer (PerkinElmer Envision or equivalent reader).

IRAK1 = IRAK1 (Homo sapiens (Human), UniProt P51617); assay: IRAK1 enzymatic assay (ADP-Glo luminescence); type: biochemical
Protocol: In this assay, IRAK1 hydrolyses ATP and autophosphorylates. Measurement of IRAK-1 inhibition is performed in 384-well format based on luminescence assay (ADP-Glo™ Kinase Assay from Promega). Purified human recombinant IRAK1 ([…]) and serial diluted compounds in DMSO (range of concentration from 10 μM to 0.5 nM) or controls (1% DMSO) are incubated for 15 minutes at RT in assay buffer containing 50 mM Hepes pH 7.0, Fatty acid-free BSA 0.1%, Dithiothreitol (DTT) 2 mM, MgCl2 10 mM, EGTA 0.5 mM, Triton X-100 0.01%. The kinase reaction is then initiated by the addition of ATP at a concentration of 1μM. After 2 hours of incubation at RT, the reaction is stopped and the unconsumed ATP depleted by the addition of ADP-Glo™ Reagent according to supplier instructions. After 40 minutes of incubation at RT, the Kinase Detection Reagent is then added to the assay plate according to supplier instructions. After 20 minutes of incubation at RT, the luminescence signal is measured with a luminometer (PerkinElmer Envision or equivalent reader).

[1] = human purified recombinant His-TEV-IRAK1 (194-712), ATP 1 μM, read-out: IRAK1 IC50

Chain of IRAK4 (Q9NWZ3 whole entry): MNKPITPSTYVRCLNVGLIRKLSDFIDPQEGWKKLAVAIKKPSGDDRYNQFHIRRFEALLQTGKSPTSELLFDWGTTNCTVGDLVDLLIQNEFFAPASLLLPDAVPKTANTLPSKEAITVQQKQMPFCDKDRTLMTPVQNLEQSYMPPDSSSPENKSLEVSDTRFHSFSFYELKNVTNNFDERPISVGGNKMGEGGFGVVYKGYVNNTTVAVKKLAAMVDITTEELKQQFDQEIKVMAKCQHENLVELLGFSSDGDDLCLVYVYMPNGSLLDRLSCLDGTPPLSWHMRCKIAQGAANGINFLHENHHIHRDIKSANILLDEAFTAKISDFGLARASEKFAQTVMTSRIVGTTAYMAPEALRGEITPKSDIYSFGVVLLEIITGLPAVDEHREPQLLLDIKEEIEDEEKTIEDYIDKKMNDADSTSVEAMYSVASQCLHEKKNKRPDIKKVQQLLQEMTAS
Chain of IRAK1 (P51617 194-712): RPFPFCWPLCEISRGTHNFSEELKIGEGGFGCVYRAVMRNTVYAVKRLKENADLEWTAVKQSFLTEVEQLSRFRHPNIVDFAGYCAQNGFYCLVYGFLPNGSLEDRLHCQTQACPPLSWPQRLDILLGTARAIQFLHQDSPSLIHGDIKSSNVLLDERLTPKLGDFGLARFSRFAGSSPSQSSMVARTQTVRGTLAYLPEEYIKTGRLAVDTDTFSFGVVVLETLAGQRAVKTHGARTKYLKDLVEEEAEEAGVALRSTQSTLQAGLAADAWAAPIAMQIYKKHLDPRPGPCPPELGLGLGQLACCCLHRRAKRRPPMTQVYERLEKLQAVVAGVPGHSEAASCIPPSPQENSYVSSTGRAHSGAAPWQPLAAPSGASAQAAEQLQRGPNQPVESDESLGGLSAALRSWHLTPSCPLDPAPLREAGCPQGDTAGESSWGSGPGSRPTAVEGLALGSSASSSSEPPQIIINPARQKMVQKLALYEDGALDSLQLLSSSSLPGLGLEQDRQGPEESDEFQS

| Molecule | IC50 (IRAK4) | IC50 (IRAK1) | IC50 (IRAK1; [1]) |
| --- | --- | --- | --- |
| 9,10-dihydroxy-17-methyl-4,5,13,16,17,20,26-heptaazatetracyclo[20.3.1.1^2,^5.0^1^5,^1^9]heptacosa-1(25),2(27),3,15,18,22(26),23-heptaene-14,21-dione [Compound 36] | < 100 nM |  |  |
| 15-methyl-4,5,11,14,15,18,24-heptaazatetracyclo[18.3.1.1^2,^5.0^13,^1^7]pentacosa-1(23),2(25),3,13,16,20(24),21-heptaene-12,19-dione [Compound 2] | 100 to 1000 nM |  |  |
| 17-methyl-4,5,13,16,17,20,26-heptaazatetracyclo[20.3.1.1^2,^5.0^1^5,^1^9]heptacosa-1(25),2(27),3,15,18,22(26),23-heptaene-14,21-dione [Compound 35] | < 100 nM |  |  |
| Cn1cc2c(n1)C(=O)NCCCCCCn1cc(cn1)-c1cccc(c1)C(=O)N2 [Compound 1, 16-methyl-4,5,12,15,16,19-hexaazatetracyclo[19.3.1.1^2,^5.0^1^4,^1^8]hexacosa-1(24),2(26),3,14,17,21(25),22-heptaene-13,20-dione] | < 100 nM | 100 to 1000 nM |  |
| Cn1cc2c(n1)C(=O)NCCCCCCn1cc(cn1)-c1cccc(n1)C(=O)N2 [Compound 3, 16-methyl-4,5,12,15,16,19,25-heptaazatetracyclo[19.3.1.1^2,^5.0^1^4,^1^8]hexacosa-1(24),2(26),3,14,17,21(25),22-heptaene-13,20-dione] | < 100 nM | 100 to 1000 nM |  |
| Cn1cc2c(n1)C(=O)NCCCCn1cc(cn1)-c1cccc(n1)C(=O)N2 [Compound 4, 4-methyl-4,5,10,13,14, 17,23-heptaazatetracyclo[17.3.1.1^2,^5.0^12,^1^6]tetracosa-1(22),2(24),3,12,15,19(23),20-heptaene-11,18-dione] | 1000 to 5000 nM | 1000 to 5000 nM |  |
| CN1CCNC(=O)c2nn(C)cc2NC(=O)c2cccc(n2)-c2cnn(c2)CCOC1=O [Compound 5, 10,17-dimethyl-8-oxa-4,5,10,13,16,17,20,26-octaazatetracyclo[20.3.1.1^2,^5.0^1^5,^1^9]heptacosa-1(25),2(27),3,15,18,22(26),23-heptaene-9,14,21-trione] | < 100 nM |  | < 100 nM |
| O=C1Nc2cn(C3CCOCC3)nc2C(=O)NCCCCCn2cc(cn2)-c2cccc1c2 [Compound 6, 15-(oxan-4-yl)-4,5,11,14,15,18-hexaazatetracyclo[18.3.1.1^2,^5.0^13,^1^7]pentacosa-1(23),2(25),3,13,16,20(24),21-heptaene-12,19-dione] | > 5000 nM |  | > 5000 nM |
| Cn1cc2c(n1)C(=O)NCC1CN(CCO1)CCn1cc(cn1)-c1cccc(n1)C(=O)N2 (stereo not drawn) [Compound 7, 18-methyl-11-oxa-4,5,8,14,17,18,21,27-octaazapentacyclo[21.3.1.1^2,^5.1^8,^12.0^1^6,^2^0]nonacosa-1 (26),2(29),3,16,19,23(27),24-heptaene-15,22-dione] | < 100 nM | 1000 to 5000 nM |  |
| Cn1cc2c(n1)C(=O)NCC1CN(CCO1)C(=O)OCCn1cc(cn1)-c1cccc(n1)C(=O)N2 (stereo not drawn) [Compound 8, 20-methyl-8,13-dioxa-4,5,10,16,19,20,23,29-octaazapentacyclo[23.3.1.1^2,^5.1^1^0,^1^4.0^1^8,^22]hentriaconta-1(28),2(31),3,18,21,25(29),26-heptaene-9,17,24-trione] | 100 to 1000 nM |  | > 5000 nM |
| Cn1cc2c(n1)C(=O)NCC1CCN(CCn3cc(cn3)-c3cccc(n3)C(=O)N2)C1 (stereo not drawn) [Compound 9, 17-methyl-4,5,8,13,16,17,20,26-octaazapentacyclo[20.3.1.1^2,^5.1^8,^11.0^1^5,^1^9]octacosa-1(25),2(28),3,15,18,22(26),23-heptaene-14,21-dione] | < 100 nM | 1000 to 5000 nM |  |
| CN1CCNC(=O)c2nn(C)cc2NC(=O)c2cccc(n2)-c2cnn(c2)CC1 [Compound 10, 8,15-dimethyl-4,5,8,11,14,15,18,24-octaazatetracyclo[18.3.1.1^2,^5.0^13,^1^7]pentacosa-1(23),2(25),3,13,16,20(24),21-heptaene-12,19-dione] | 100 to 1000 nM | 1000 to 5000 nM |  |
| CN1CCCNC(=O)c2nn(C)cc2NC(=O)c2cccc(n2)-c2cnn(c2)CC1 [Compound 11, 8,16-dimethyl-4,5,8,12,15,16,19,25-octaazatetracyclo[19.3.1.1^2,^5.0^1^4,^1^8]hexacosa-1(24),2(26),3,14,17,21(25),22-heptaene-13,20-dione] | < 100 nM | 1000 to 5000 nM |  |
| O=C1Nc2cn(C3CCOCC3)nc2C(=O)NCCCCCCn2cc(cn2)-c2cccc1n2 [Compound 12, 16-(oxan-4-yl)-4,5,12,15,16,19,25-heptaazatetracyclo[19.3.1.1^2,^5.0^1^4,^1^8]hexacosa-1(24),2(26),3,14,17,21 (25),22-heptaene-13,20-dione] | < 100 nM | 100 to 1000 nM |  |
| O=C1Nc2cn(C3CCOCC3)nc2C(=O)NCCSCCCn2cc(cn2)-c2cccc1n2 [Compound 13, 6-(oxan-4-yl)-9-thia-4,5,12,15,16,19,25-heptaazatetracyclo[19.3.1.1^2,^5.0^1^4,^1^8]hexacosa-1(24),2(26),3,14,17,21(25),22-heptaene-13,20-dione] | < 100 nM | 100 to 1000 nM |  |
| O=C1Nc2cn(C3CCOCC3)nc2C(=O)NCC[S+]([O-])CCCn2cc(cn2)-c2cccc1n2 (stereo not drawn) [Compound 14, 16-(oxan-4-yl)-9λ^4-thia-4,5,12,15,16,19,25-heptaazatetracyclo[19.3.1.1^2,^5.0^1^4,^1^8]hexacosa-1(24),2(26),3,14,17,21(25),22-heptaene-9,13,20-trione] | < 100 nM | 100 to 1000 nM |  |
| O=C1Nc2cn(C3CCOCC3)nc2C(=O)NCCS(=O)(=O)CCCn2cc(cn2)-c2cccc1n2 [Compound 15, 16-(oxan-4-yl)-9λ^6-thia-4,5,12,15,16,19,25-heptaazatetracyclo[19.3.1.1^2,^5.0^1^4,^1^8]hexacosa-1(24),2(26),3,14,17,21(25),22-heptaene-9,9,13,20-tetrone] | < 100 nM | 100 to 1000 nM |  |
| O=C1Nc2cn(C3CCNCC3)nc2C(=O)NCCCCCCn2cc(cn2)-c2cccc1n2 [Compound 16, 16-(piperidin-4-yl)-4,5,12,15,16,19,25-heptaazatetracyclo[19.3.1.1^2,^5.0^1^4,^1^8]hexacosa-1 (24),2(26),3,14,17,21(25),22-heptaene-13,20-dione] | < 100 nM | 100 to 1000 nM |  |
| CS(=O)(=O)N1CCC(n2cc3c(n2)C(=O)NCCCCCCn2cc(cn2)-c2cccc(n2)C(=O)N3)CC1 [Compound 17, 6-(1-methanesulfonylpiperidin-4-yl)-4,5,12,15,16,19,25-heptaazatetracyclo[19.3.1.1^2,^5.0^1^4,^1^8]hexacosa-1(24),2(26),3,14,17,21(25),22-heptaene-13,20-dione] | < 100 nM | 100 to 1000 nM |  |
| O=C1Nc2cn(C3CCN(C(=O)C4CC4(F)F)CC3)nc2C(=O)NCCCCCCn2cc(cn2)-c2cccc1n2 (stereo not drawn) [Compound 18, 16-[1-(2,2-difluorocyclopropanecarbonyl)piperidin-4-yl]-4,5,12,15,16,19,25-heptaazatetracyclo[19.3.1.1^2,^5.0^1^4,^1^8]hexacosa-1(24),2(26),3,14,17,21 (25),22-heptaene-13,20-dione] | < 100 nM | 100 to 1000 nM |  |
| O=C1Nc2cn(C3CCN(C(=O)NC4CC4)CC3)nc2C(=O)NCCCCCCn2cc(cn2)-c2cccc1n2 [Compound 19, N-cyclopropyl-4-{13,20-dioxo-4,5,12,15,16,19,25-heptaazatetracyclo[19.3.1.1^2,^5.0^1^4,^1^8]hexacosa-1(24),2(26),3,14,17,21(25),22-heptaen-16-yl}piperidine-1-carboxamide] | < 100 nM | 100 to 1000 nM |  |
| Cn1cc2c(n1)C(=O)NC1CCN(CC1O)C(=O)OCCn1cc(cn1)-c1cccc(n1)C(=O)N2 (stereo not drawn) [Compound 21, 26-hydroxy-6-methyl-22-oxa-2,5,6,9,18,19,24,30-octaazapentacyclo[22.2.2.1^11,^1^5.1^1^6,^1^9.0^4,^8]triaconta-4,7,11(30),12,14,16(29),17-heptaene-3,10,23-trione] | 100 to 1000 nM | 1000 to 5000 nM |  |
| (9E)-17-methyl-4,5,13,16, 17,20,26-heptaazatetracyclo[20.3.1.1^2,^5.0^1^5,^1^9]heptacosa-1(25),2(27),3,9,15,18,22(26),23-octaene-14,21-dione [Compound 34] | < 100 nM |  |  |
